Experimental data taken from ChEMBL document CHEMBL5543169, “Exploring Subsite Selectivity within Plasmodium vivax N-Myristoyltransferase Using Pyrazole-Derived Inhibitors” (J Med Chem, 2024).

How the values were obtained:
[1] = Inhibition of N-terminal 6His-tagged Plasmodium vivax NMT (27 to 410 residues) expressed in Escherichia coli Rosetta 2 (DE3) cells preincubated for 30 mins followed by myrCoA, PfARF and CPM addition by fluorescence based plate reader assay
[2] = Inhibition of Plasmodium vivax NMT

SMILES	IC50 [1] [nM]	IC50 [2] [nM]
Cc1c(CCOc2ccc3ccccc3c2-c2ccnc(N3CCNCC3)c2)c(C(=O)NCC(N)=O)nn1C	5070	–
Cc1nn(C)c(C)c1CCOc1cccnc1-c1cccc(N2CCNCC2)c1	80.2	–
O=C(c1cccc(NCc2cc(-c3ccc(Cl)cc3)c[nH]c2=O)c1)N1CCOCC1	–	3400
Cc1c(CCOc2ccc3ccccc3c2-c2ccnc(N3CCNCC3)c2)c(C(=O)Nc2cccnc2)nn1C	1000	–
